# Reference: US9822118B2, “Bicyclic heteroaryl urea, thiourea, guanidine and cyanoguanidine compounds as TrkA kinase inhibitors” (Array BioPharma Inc., priority 2012, dated 2017)
# pIC50: −log10 of the molar value.
# Molecular target: T1, recombinant human TrkA (Homo sapiens, UniProt P04629)
# T1 construct: 6HIS tagged cytoplasmic domain from Invitrogen, Catalog No. PV3144; purchased Invitrogen PV3144
# Assay: TrkA LanthaScreen Eu Kinase Binding Assay
# Settings: averaged IC50; TR-FRET binding assay, 60 min at 22° C.; read-out: TrkA Enzyme IC50
# Description: TrkA binding activity was determined in a TrkA LanthaScreen™ Eu Kinase Binding Assay. 5 nM His-tagged recombinant human TrkA (6HIS tagged cytoplasmic domain from Invitrogen, Catalog No. PV3144) was incubated with 4 nM Alexa-Fluor® Tracer 236 (Invitrogen Cat. No. PV5592), 2 nM biotinylated anti-His (Invitrogen Cat. No. PV6090), and 2 nM europium-labeled Streptavidin (Invitrogen Cat. No. PV5899), in buffer (25 mM MOPS, pH 7.5, 5 mM MgCl2, 0.005% Triton X-100). Three fold serial dilutions of compounds of the invention in DMSO were added to a final percentage of 2% DMSO. After 60-minute incubation at 22° C., the reaction was measured using the EnVision multimode plate reader (PerkinElmer) via TR-FRET dual wavelength detection at […]. The percent of control was calculated using a ratiometric emission factor. The IC50 values were determined by fitting a four parameter model to the percent of control data.
# Table A provides averaged IC50 values for compounds of the invention when tested in the assay of Example A, where A represents an averaged IC50 value <100 nM; and B represents an averaged IC50 value from 100 to 1,000 nM.
# T1 sequence (P04629 440-796 limits assumed): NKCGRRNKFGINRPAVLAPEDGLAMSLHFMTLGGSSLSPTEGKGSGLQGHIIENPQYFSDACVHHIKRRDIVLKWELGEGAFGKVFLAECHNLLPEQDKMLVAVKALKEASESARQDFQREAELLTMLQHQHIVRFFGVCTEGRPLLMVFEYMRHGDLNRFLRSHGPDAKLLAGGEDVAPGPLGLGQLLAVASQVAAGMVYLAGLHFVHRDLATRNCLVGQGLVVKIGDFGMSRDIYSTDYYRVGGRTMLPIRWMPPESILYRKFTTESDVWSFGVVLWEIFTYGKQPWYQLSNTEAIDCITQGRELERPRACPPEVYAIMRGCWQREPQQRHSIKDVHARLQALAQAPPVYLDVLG
row,Compound,pIC50
1,"Cc1c(OC[C@@H](C)O)nn(-c2ccccc2)c1NC(=O)Nc1c(-c2ccccc2)nc2c(C(F)(F)F)cccn12 [Example 27, (R)-1-(3-(2-hydroxypropoxy)-4-methyl-1-phenyl-1H-pyrazol-5-yl)-3-(2-phenyl-8-(trifluoromethyl)imidazo[1,2-a]pyridin-3-yl)urea]",> 7.00
2,"CCOc1nn(-c2ccccc2)c(NC(=O)Nc2c(-c3ccc(OC)cc3)nc3c(C)cccn23)c1C [Example 23, 1-(3-ethoxy-4-methyl-1-phenyl-1H-pyrazol-5-yl)-3-(2-(4-methoxyphenyl)-8-methylimidazo[1,2-a]pyridin-3-yl)urea]",6.00 to 7.00
3,"Cc1c(OCC(CO)CO)nn(-c2ccccc2)c1NC(=O)Nc1c(-c2ccccc2)nc2c(C(F)(F)F)cccn12 [Example 25, 1-(3-(3-hydroxy-2-(hydroxymethyl)propoxy)-4-methyl-1-phenyl-1H-pyrazol-5-yl)-3-(2-phenyl-8-(trifluoromethyl)imidazo[1,2-a]pyridin-3-yl)urea]",> 7.00
4,"COC[C@@H](O)COc1nn(-c2ccccc2)c(NC(=O)Nc2c(-c3ccccc3)nc3c(C(F)(F)F)cccn23)c1C [Example 35, (R)-1-(3-(2-hydroxy-3-methoxypropoxy)-4-methyl-1-phenyl-1H-pyrazol-5-yl)-3-(2-phenyl-8-(trifluoromethyl)imidazo[1,2-a]pyridin-3-yl)urea]",6.00 to 7.00
5,"CCOc1nn(-c2ccccc2)c(NC(=O)Nc2c(-c3cccc(F)c3)nc3c(C(F)(F)F)cccn23)c1C [Example 32, 1-(3-ethoxy-4-methyl-1-phenyl-1H-pyrazol-5-yl)-3-(2-(3-fluorophenyl)-8-(trifluoromethyl)imidazo[1,2-a]pyridin-3-yl)urea]",6.00 to 7.00
6,"Cn1cc(-c2nn(-c3ccccc3)c(NC(=O)Nc3c(-c4ccccc4)nc4c(C(F)(F)F)cccn34)c2Cl)cn1 [Example 34, 1-(4-chloro-1′-methyl-1-phenyl-1H,1′H-[3,4′-bipyrazol]-5-yl)-3-(2-phenyl-8-(trifluoromethyl)imidazo[1,2-a]pyridin-3-yl)urea]",> 7.00
7,"CCOc1nn(-c2ccccc2)c(NC(=O)Nc2c(-c3ccc(F)cc3)nc3c(C(F)(F)F)cccn23)c1C [Example 33, 1-(3-ethoxy-4-methyl-1-phenyl-1H-pyrazol-5-yl)-3-(2-(4-fluorophenyl)-8-(trifluoromethyl)imidazo[1,2-a]pyridin-3-yl)urea]",> 7.00
8,"Cc1ccc(NC(=O)Nc2c(-c3ccccc3)nc3c(C)nccn23)c(-c2ccccc2)n1 [Example 9, 1-(8-methyl-2-phenylimidazo[1,2-a]pyrazin-3-yl)-3-(6-methyl-2-phenylpyridin-3-yl)urea]",6.00 to 7.00
9,"COc1ccc(-c2nc3c(C)cccn3c2NC(=O)Nc2c3c(nn2-c2ccccc2)CS(=O)(=O)C3)cc1 [Example 24, 1-(5,5-dioxido-2-phenyl-4,6-dihydro-2H-thieno[3,4-c]pyrazol-3-yl)-3-(2-(4-methoxyphenyl)-8-methylimidazo[1,2-a]pyridin-3-yl)urea]",6.00 to 7.00
10,"Cc1c(OCC(C)(C)O)nn(-c2ccccc2)c1NC(=O)Nc1c(-c2ccccc2)nc2c(C(F)(F)F)cccn12 [Example 26, 1-(3-(2-hydroxy-2-methylpropoxy)-4-methyl-1-phenyl-1H-pyrazol-5-yl)-3-(2-phenyl-8-(trifluoromethyl)imidazo[1,2-a]pyridin-3-yl)urea]",> 7.00
11,"Cc1c(OC[C@H](O)CO)nn(-c2ccccc2)c1NC(=O)Nc1c(-c2ccccc2)nc2c(C(F)(F)F)cccn12 [Example 28, (R)-1-(3-(2,3-dihydroxypropoxy)-4-methyl-1-phenyl-1H-pyrazol-5-yl)-3-(2-phenyl-8-(trifluoromethyl)imidazo[1,2-a]pyridin-3-yl)urea]",> 7.00
12,"COC[C@H](O)COc1nn(-c2ccccc2)c(NC(=O)Nc2c(-c3ccccc3)nc3c(C(F)(F)F)cccn23)c1C [Example 36, (S)-1-(3-(2-hydroxy-3-methoxypropoxy)-4-methyl-1-phenyl-1H-pyrazol-5-yl)-3-(2-phenyl-8-(trifluoromethyl)imidazo[1,2-a]pyridin-3-yl)urea]",> 7.00

# The next lines start with the values.
row,pIC50,Compound
1,> 7.00,"CCOc1nn(-c2ccccc2)c(NC(=O)Nc2c(-c3ccccc3)nc3c(C)nccn23)c1C [Example 2, 1-(3-ethoxy-4-methyl-1-phenyl-1H-pyrazol-5-yl)-3-(8-methyl-2-phenylimidazo[1,2-a]pyrazin-3-yl)urea]"
2,6.00 to 7.00,"Cc1c(OC[C@H](C)O)nn(-c2ccccc2)c1NC(=O)Nc1c(-c2ccccc2)nc2c(C)cccn12 [Example 11, (S)-1-(3-(2-hydroxypropoxy)-4-methyl-1-phenyl-1H-pyrazol-5-yl)-3-(8-methyl-2-phenylimidazo[1,2-a]pyridin-3-yl)urea]"
3,> 7.00,"Cc1cccn2c(NC(=O)Nc3c4c(nn3-c3ccccc3)COC4)c(-c3ccccc3)nc12 [Example 14, 1-(8-methyl-2-phenylimidazo[1,2-a]pyridin-3-yl)-3-(2-phenyl-4,6-dihydro-2H-furo[3,4-c]pyrazol-3-yl)urea]"
4,> 7.00,"Cc1cccn2c(NC(=O)Nc3c4c(nn3-c3ccccc3)CS(=O)(=O)C4)c(-c3ccccc3)nc12 [Example 17, 1-(5,5-dioxido-2-phenyl-4,6-dihydro-2H-thieno[3,4-c]pyrazol-3-yl)-3-(8-methyl-2-phenylimidazo[1,2-a]pyridin-3-yl)urea]"
5,> 7.00,"Cc1c(-c2cnn(C)c2)nn(-c2ccccc2)c1NC(=O)Nc1c(-c2ccccc2)nc2c(C(F)(F)F)cccn12 [Example 30, 1-(1′,4-dimethyl-1-phenyl-1H,1′H-[3,4′-bipyrazol]-5-yl)-3-(2-phenyl-8-(trifluoromethyl)imidazo[1,2-a]pyridin-3-yl)urea]"
6,> 7.00,"Cc1cccn2c(NC(=O)Nc3c4c(nn3-c3ccccc3)CCCC4)c(-c3ccccc3)nc12 [Example 19, 1-(8-methyl-2-phenylimidazo[1,2-a]pyridin-3-yl)-3-(2-phenyl-4,5,6,7-tetrahydro-2H-indazol-3-yl)urea]"
7,> 7.00,"O=C(Nc1c(-c2ccccc2)nn2ccccc12)Nc1c2c(nn1-c1ccccc1)CCC2 [Example 38, 1-(2-phenyl-2,4,5,6-tetrahydrocyclopenta[c]pyrazol-3-yl)-3-(2-phenylpyrazolopyridin-3-yl)urea]"
8,> 7.00,"CCOc1nn(-c2ccccc2)c(NC(=O)Nc2c(-c3ccccc3)nc3c(C)cccn23)c1C [Example 7, 1-(3-ethoxy-4-methyl-1-phenyl-1H-pyrazol-5-yl)-3-(8-methyl-2-phenylimidazo[1,2-a]pyridin-3-yl)urea]"
9,> 7.00,"O=C(Nc1c2c(nn1-c1ccccc1)CCC2)Nc1c(-c2ccccc2)nc2c(C(F)(F)F)cccn12 [Example 13, 1-(2-phenyl-2,4,5,6-tetrahydrocyclopenta[c]pyrazol-3-yl)-3-(2-phenyl-8-(trifluoromethyl)imidazo[1,2-a]pyridin-3-yl)urea]"
10,6.00 to 7.00,"CCOc1nn(-c2ccccc2)c(NC(=O)Nc2c(-c3ccccc3)nc3c(F)cccn23)c1C [Example 6, 1-(3-ethoxy-4-methyl-1-phenyl-1H-pyrazol-5-yl)-3-(8-fluoro-2-phenylimidazo[1,2-a]pyridin-3-yl)urea]"
11,> 7.00,"Cc1cccn2c(NC(=O)Nc3c4c(nn3-c3ccccc3)CCC4)c(-c3ccccc3)nc12 [Example 12, 1-(8-methyl-2-phenylimidazo[1,2-a]pyridin-3-yl)-3-(2-phenyl-2,4,5,6-tetrahydrocyclopenta[c]pyrazol-3-yl)urea]"
